Results taken from patent publication US20130252821A1, “METHODS AND COMPOSITIONS FOR THE TREATMENT AND DIAGNOSIS OF DISEASES CHARACTERIZED BY VASCULAR LEAK, HYPOTENSION, OR A PROCOAGULANT STATE” (Beth Israel Deaconess Medical Center, Inc., priority 2005, published 2013).

How the values were obtained:
[1] = tested on: myosin light chain (MLC) phosphorylation in HMVECs; experiment: MLC phosphorylation assay (Western blot); format: cell-based, human; settings: for effect on Ang-2-induced phosphorylation of MLC: Ang-2 100 ng/ml, inhibitor 10 μM
Protocol: After signal starvation with 0.25% FBS EBM-2 for 24 h, cells were treated with 100 ng/ml Ang-2 or vehicle for 0, 1, 3, and 6 hours. Phosphorylated myosin light chain (MLC-p) (phospho-serine 19) and GAPDH were detected by Western blot analysis. For human subject serum effects on HMVECs, serum was diluted to 5% with EBM-2 and filtered with low protein binding PVDF membrane (0.22 μm, Millipore Corp, Bedford, Mass.). Anti-MLC-phospho-serine-19 Ab was obtained from Abcam Inc.

HMVEC monolayers = experiment: Immunofluorescence of endothelial architecture (F-actin, VE-cadherin); format: cell-based, human; settings: Ang-2 100 ng/ml, inhibitor 10 μM, 5 hours
Protocol: HMVEC were grown to confluence on glass coverslips coated with 1% gelatin. The cells were fixed for 10 minutes in 4% paraformaldehyde in PBS, incubated for 5 min in 0.5% Triton X-100 in PBS. After blocking, the monolayers were processed for staining with anti-VE-cadherin monoclonal antibody (BD Pharmingen, San Diego, Calif.) and Alexa Fluoro 488 goat anti-mouse IgG, rhodamine phalloidin (Molecular Probe, Eugene, Oreg.) for F-actin staining and TOPRO-3-iodine (Molecular Probe) for nuclear staining. Fluorescence images were obtained using a Bio Rad MRC confocal fluorescence microscope. For human subject serum experiments, serum was diluted to 10% with EBM-2 and filtered with low protein binding PVDF membrane (0.22 μm, Millipore Corp) prior to application on endothelial cell monolayers.

| SMILES | effect on Ang-2 mediated MLC phosphorylation ([1]; panepoxydone added to EC monolayers) | reversal of Ang-2 induced thick actin stress fibers and paracellular gaps (HMVEC monolayers) | effect on Ang-2-induced phosphorylation of MLC [1] |
| --- | --- | --- | --- |
| CC(C)=C[C@H](O)C1=C[C@@H](O)[C@@H]2O[C@@H]2C1=O [Panepoxydone] | marked inhibition | – | – |
| C[C@@H](N)[C@H]1CC[C@H](C(=O)Nc2ccncc2)CC1 [Y27632, reference compound] | – | completely reversed | completely abolished |
| O=S(=O)(c1cccc2c(I)cccc12)N1CCCNCC1 [ML-7, reference compound] | – | partially reversed | partially inhibited |
